In experiment [1] the target is thrombin-stimulated platelets (Homo sapiens, UniProt P05106+P08514). The experiment in a line: Fibrinogen-Binding Assay (125I-fibrinogen binding to platelets). The following applies: for IC50: 125I-fibrinogen 0.176 μmol/liter, thrombin-stimulated platelets, read-out: Inhibition of 125I-Fibrinogen Binding to Platelets IC50.
In experiment [2] the target is fixed activated platelets (Homo sapiens, UniProt P05106+P08514). The experiment in a line: Platelet Aggregation Assay (fibrinogen-mediated aggregation of fixed-activated platelets). It is filed as cell-based. The following applies: for IC50: fixed activated platelets, human fibrinogen 250 μg/ml, read-out: Inhibition of Fibrinogen Mediated Platelet Aggregation IC50; for inhibition at 25 µM: read-out: Inhibition of Fibrinogen Mediated Platelet Aggregation % inhibition at 25 μM; for inhibition at 100 µM: read-out: Inhibition of Fibrinogen Mediated Platelet Aggregation % inhibition at 100 μM. The method in brief:
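Activated platelets fixed with 0.50% paraformaldehyde for 30 min at room temperature. They were then pre-incubated 1 min with test compound before aggregation was triggered by human fibrinogen at 250 μg/ml final. Aggregation recorded on an aggregometer.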

SMILES strings stand for the structures. Non-standard residues stand in square brackets, D forms with d. Residues, ends and D or L forms follow the SMILES beside them. Orn = NCCC[C@H](N)C(=O)O; Sar = CNCC(=O)O

Sequence of fixed activated platelets (P08514 32-1039): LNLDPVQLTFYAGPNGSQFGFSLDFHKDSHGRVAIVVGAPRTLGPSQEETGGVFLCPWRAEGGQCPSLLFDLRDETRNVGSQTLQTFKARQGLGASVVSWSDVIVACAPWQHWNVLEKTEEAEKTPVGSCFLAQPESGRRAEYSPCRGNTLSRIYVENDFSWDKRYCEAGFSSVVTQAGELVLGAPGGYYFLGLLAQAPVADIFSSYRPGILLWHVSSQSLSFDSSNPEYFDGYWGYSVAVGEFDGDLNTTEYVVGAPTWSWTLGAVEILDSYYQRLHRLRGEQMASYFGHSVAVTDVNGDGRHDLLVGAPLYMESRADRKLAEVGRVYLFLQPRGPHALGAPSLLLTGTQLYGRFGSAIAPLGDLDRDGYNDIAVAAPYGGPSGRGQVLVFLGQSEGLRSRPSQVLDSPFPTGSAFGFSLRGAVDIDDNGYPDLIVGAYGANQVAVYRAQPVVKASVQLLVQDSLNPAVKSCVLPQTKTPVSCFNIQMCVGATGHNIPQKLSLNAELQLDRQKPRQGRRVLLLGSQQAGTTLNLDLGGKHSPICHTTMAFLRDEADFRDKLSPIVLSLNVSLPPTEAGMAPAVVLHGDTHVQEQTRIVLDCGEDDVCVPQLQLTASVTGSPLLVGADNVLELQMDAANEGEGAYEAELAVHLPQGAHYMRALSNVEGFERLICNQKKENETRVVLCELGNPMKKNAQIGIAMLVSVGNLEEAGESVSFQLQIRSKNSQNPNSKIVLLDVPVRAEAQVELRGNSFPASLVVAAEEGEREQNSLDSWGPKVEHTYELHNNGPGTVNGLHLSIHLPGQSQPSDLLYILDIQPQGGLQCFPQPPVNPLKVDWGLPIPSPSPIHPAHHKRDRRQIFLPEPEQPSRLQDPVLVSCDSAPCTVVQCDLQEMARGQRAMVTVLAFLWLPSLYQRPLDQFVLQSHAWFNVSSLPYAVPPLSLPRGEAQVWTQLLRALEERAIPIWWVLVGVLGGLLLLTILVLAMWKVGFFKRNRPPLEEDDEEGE
Sequence of fixed activated platelets (P05106 27-788): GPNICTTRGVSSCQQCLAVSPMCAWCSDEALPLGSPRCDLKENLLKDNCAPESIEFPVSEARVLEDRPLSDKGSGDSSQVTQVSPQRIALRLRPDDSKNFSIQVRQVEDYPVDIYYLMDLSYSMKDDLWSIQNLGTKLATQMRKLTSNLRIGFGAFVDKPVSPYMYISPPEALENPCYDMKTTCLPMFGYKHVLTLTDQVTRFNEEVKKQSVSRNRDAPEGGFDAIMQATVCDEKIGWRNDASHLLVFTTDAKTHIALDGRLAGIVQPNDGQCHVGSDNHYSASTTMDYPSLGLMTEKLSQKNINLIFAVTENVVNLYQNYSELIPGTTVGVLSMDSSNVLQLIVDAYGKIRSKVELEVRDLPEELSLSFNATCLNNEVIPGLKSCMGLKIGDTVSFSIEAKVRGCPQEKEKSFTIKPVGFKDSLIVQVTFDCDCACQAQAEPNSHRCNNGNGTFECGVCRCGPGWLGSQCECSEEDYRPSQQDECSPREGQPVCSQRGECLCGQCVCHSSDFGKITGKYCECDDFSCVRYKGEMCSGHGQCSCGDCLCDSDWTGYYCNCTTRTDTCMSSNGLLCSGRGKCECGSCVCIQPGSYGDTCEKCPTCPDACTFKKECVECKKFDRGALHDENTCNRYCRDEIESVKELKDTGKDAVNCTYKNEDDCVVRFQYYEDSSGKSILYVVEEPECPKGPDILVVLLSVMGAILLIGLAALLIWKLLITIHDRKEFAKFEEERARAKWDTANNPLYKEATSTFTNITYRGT
Sequence of thrombin-stimulated platelets (P08514 32-1039): as the sequence (P08514 32-1039) above
Sequence of thrombin-stimulated platelets (P05106 27-788): as the sequence (P05106 27-788) above

In the case of `CC(C)[C@H](NC(=O)[C@H](CC(=O)O)NC(=O)CN(C)C(=O)CCCCn1ccnc1)C(=O)O` [5-(Imidazol-1-yl)-pentanoyl-sarcosyl-L-aspartyl-L-valine], the IC50 (as a rule, the concentration that gives 50% inhibition) in experiment [1] came out at 0.15 µM. For the same molecule, in experiment [2], the IC50 was 1.5 µM and the inhibition at 25 µM is 95%.

`CC(C)[C@H](NC(=O)CNC(=O)CNC(=O)[C@@H](N)CCCNC(=N)N)C(=O)O` [L-arginyl glycyl glycyl-L-valine] (H-RGGV-OH): the IC50 in experiment [1] is greater than 200 µM; in experiment [2] it was greater than 100 µM. In addition, the inhibition at 100 µM in experiment [2] was 10%.

Take `CC(C)[C@H](NC(=O)[C@H](CC(=O)O)NC(=O)CNC(=O)CCCCn1ccnc1)C(=O)O` [5-(Imidazol-1-yl)-valeroylglycyl-L-aspartyl-L-valine]: in experiment [1], the IC50 worked out at 1.25 µM. For the same molecule, in experiment [2], the IC50 is 20.2 µM and the inhibition at 25 µM was found to be 58%.

Consider `CCCC[C@H](NC(=O)[C@H](CC(=O)O)NC(=O)CCCCCCCCNC(=N)N)C(=O)N[C@@H](CCCNC(=N)N)C(=O)O` [9-Guanidinononanoyl-L-aspartyl-L-norleucyl-L-arginine], for which the IC50 in experiment [1] amounted to 0.21 µM. Besides, in experiment [2], the concentration for half-maximal inhibition (IC50) is 0.3 µM and the inhibition at 25 µM worked out at 95%.

Take `CC[C@@H](C)[C@@H](NC(=O)[C@H](CC(=O)O)NC(=O)CCCCCCCCNC(=N)N)C(=O)N[C@@H](CCCNC(=N)N)C(=O)O` [9-Guanidinononanoyl-L-aspartyl-D-isoleucyl-L-arginine]: the IC50 in experiment [1] stood at 10.2 µM. In addition, in experiment [2], the IC50 worked out at 13.1 µM and the inhibition at 25 µM came to 75%.

In the case of `N=C(N)NCCCCCCCC(=O)N[C@@H](CC(=O)O)C(=O)N[C@@H](Cc1ccccc1)C(=O)O` [8-Guanidinooctanoyl-L-aspartyl-L-phenyl-alanine], the IC50 in experiment [1] amounted to 0.2 µM. For the same molecule, in experiment [2], the IC50 was found to be 0.69 µM and the inhibition at 25 µM stood at 96%.

In the case of `CC(C)CNC(=O)[C@H](CC(=O)O)NC(=O)CNC(=O)[C@@H](N)CCCNC(=N)N` [L-arginylglycyl-L-aspartyl-α-isobutylamide], the IC50 was found to be 26.5 µM in experiment [1] and 3.6 µM in experiment [2]. In experiment [2], the inhibition at 100 µM turned out to be 89%.

As for `CC(C)C[C@H](NC(=O)[C@H](CC(=O)O)NC(=O)CCCCCCCCNC(=N)N)C(=O)O` [9-guanidinononanoyl-L-aspartyl-L-leucine], the IC50 in experiment [1] was determined as 0.4 µM. In addition, in experiment [2], the IC50 stood at 0.59 µM and the inhibition at 25 µM stood at 95%.

Consider `N=C(N)NCCCCCCCC(=O)N[C@@H](CC(=O)O)C(=O)N[C@@H](CCCCN)C(=O)O` [8-Guanidinooctanoyl-L-aspartyl-L-lysine], for which the IC50 in experiment [1] was determined as 0.78 µM; in experiment [2] it was 1.6 µM. For the same molecule, the inhibition at 25 µM in experiment [2] came to 93%.

As to `N=C(N)NCCCCC(=O)NCC(=O)N[C@@H](CC(=O)O)C(=O)N1CCc2ccccc2C1` [2-[N-(5-guanidinopentanoyl)glycyl-L-aspartyl]-1,2,3,4-tetrahydroisoquinoline], the half-inhibitory concentration (IC50) in experiment [1] stood at 130 µM. Moreover, in experiment [2], the IC50 stood at 20.4 µM and the inhibition at 100 µM worked out at 48%.

As for `CN(CC(=O)N[C@@H](CC(=O)O)C(=O)N[C@@H](CCCNC(=N)N)C(=O)O)C(=O)CCCCCNC(=N)N` [6-Guanidinohexanoyl-sarcosyl-L-aspartyl-L-arginine], the IC50 in experiment [1] is 0.52 µM. In experiment [2], the half-maximal inhibitory concentration (IC50) amounted to 2.1 µM and the inhibition at 25 µM stood at 97%.

For `CC[C@H](C)[C@H](NC(=O)CCNC(=O)[C@H](CC(=O)O)NC(=O)CCCCCCCCNC(=N)N)C(=O)O` [9-Guanidinononanoyl-L-aspartyl-β-alanyl-L-isoleucine], the half-inhibitory concentration (IC50) in experiment [1] amounted to 54 µM; in experiment [2] it was 999 µM. In experiment [2], the inhibition at 25 µM amounted to 9%.

`CC(C)[C@H](NC(=O)[C@H](CC(=O)O)NC(=O)CCCCCCCCCn1ccnc1)C(=O)O` [10-(Imidazol-1-yl)decanoyl-L-aspartyl-L-valine]: in experiment [1], the IC50 was 20 µM. Besides, in experiment [2], the IC50 is greater than 25 µM and the inhibition at 25 µM worked out at 45%.

On to `N=C(N)NCCCCCCCCC(=O)N[C@@H](CC(=O)O)C(=O)NCCCCNC(=N)N` [9-Guanidinononanoyl-L-aspartyl-(des-carboxy)-L-arginine], for which the IC50 is 0.52 µM in experiment [1] and 4.4 µM in experiment [2]. Also, the inhibition at 25 µM in experiment [2] came to 84%.

With `CC[C@H](C)[C@H](NC(=O)[C@H](CC(=O)O)NC(=O)CCCCCCCCNC(=N)N)C(=O)O` [9-Guanidinononanoyl-L-aspartyl-L-isoleucine], the IC50 came out at 0.38 µM in experiment [1] and 4.2 µM in experiment [2]. In addition, the inhibition at 25 µM in experiment [2] was determined as 93%.

Consider `CCC(CCCCCCNC(=N)N)C(=O)NC(CC(=O)O)C(=O)N[C@H](C(=O)O)C(C)C` (mixture of isomers) [8-Guanidino-2-(R,S)-ethyl-octanoyl-L-aspartyl-L-valine], for which the IC50 in experiment [1] is greater than 200 µM. In addition, the inhibition at 25 µM in experiment [2] was determined as 30%.

For the molecule `CC(C)[C@H](NC(=O)[C@H](CC(=O)O)NC(=O)CCCCCCCCN)C(=O)O` [9-aminononanoyl-L-aspartyl-L-valine], the IC50 in experiment [1] came to 30 µM. For the same molecule, in experiment [2], the half-maximal inhibitory concentration (IC50) was determined as 19.1 µM and the inhibition at 25 µM is 10.1%.

For `CCCC(C)CN(CC(=O)N[C@@H](CC(=O)O)C(=O)N[C@H](C(=O)O)C(C)C)C(=O)CCCCCNC(=N)N` (stereo partly drawn) [6-Guanidinohexanoyl-N-(2-methylpentyl)glycine-L-aspartic acid-L-valine], the IC50 was greater than 200 µM in experiment [1] and 10.5 µM in experiment [2]. Further, the inhibition at 25 µM in experiment [2] was 86%.

`CN(CC(=O)N[C@@H](CC(=O)O)C(=O)N[C@@H](Cc1c[nH]c2ccccc12)C(=O)O)C(=O)CCCCCNC(=N)N` [6-Guanidinohexanoyl-sarcosyl-L-aspartyl-L-tryptophan]: the results for the IC50 in experiment [1] and in experiment [2] were 0.19 µM and 6.6 µM, respectively. Besides, in experiment [2], the inhibition at 25 µM was determined as 89%.

Regarding `CC(C)[C@H](NC(=O)[C@H](CC(=O)O)NC(=O)CNC(=O)[C@@H](N)CCCCN)C(=O)O` [L-Lysylglycyl-L-aspartyl-L-valine] (H-KGDV-OH), the IC50 in experiment [1] came out at 60 µM. In addition, in experiment [2], the 50% inhibitory concentration (IC50) is greater than 25 µM and the inhibition at 25 µM is 8%.

With `CC(C)C[C@@H](CCC(=O)O)NC(=O)[C@H](CC(=O)O)NC(=O)CCCCCCCCNC(=N)N` [N-(9-guanidinononanoyl-L-aspartyl)-(R)-4-amino-4-isobutylbutyric acid], the IC50 in experiment [1] was determined as 54 µM. For the same molecule, in experiment [2], the IC50 is greater than 25 µM and the inhibition at 25 µM came to 13%.

With `N=C(N)NCCCCCCCC(=O)N[C@@H](CC(=O)O)C(=O)N[C@@H](CCCNC(=N)N)C(=O)O` [8-Guanidinooctanoyl-L-aspartyl-arginine], the IC50 was determined as 0.33 µM in experiment [1] and 2.2 µM in experiment [2]. For the same molecule, the inhibition at 25 µM in experiment [2] is 94%.

Turning to `CN(CC(=O)N[C@@H](CC(=O)O)C(=O)N[C@@H](Cc1ccc(O)cc1)C(=O)O)C(=O)CCCCCNC(=N)N` [6-Guanidinohexanoyl-sarcosyl-L-aspartyl-L-tyrosine], the IC50 in experiment [1] was 3.6 µM. In experiment [2], the IC50 turned out to be 7.3 µM and the inhibition at 25 µM stood at 94%.

Take `CCN(CC(=O)N[C@@H](CC(=O)O)C(=O)N[C@@H](CC(C)C)C(=O)O)C(=O)CCCCNC(=N)N` [5-guanidinopentanoyl-N-(ethyl)-glycyl-L-aspartyl-L-leucine]: the IC50 in experiment [1] was determined as 0.39 µM; in experiment [2], 0.54 µM. Further, in experiment [2], the inhibition at 25 µM stood at 90%.

Turning to `CCC(CC)(NC(=O)[C@H](CC(=O)O)NC(=O)CCCCCCCCNC(=N)N)C(=O)N[C@@H](CCCNC(=N)N)C(=O)O` [9-Guanidinononanoyl-L-aspartyl-α,α-diethyl-glycyl-L-arginine], the IC50 in experiment [1] worked out at 40 µM. For the same molecule, in experiment [2], the IC50 was greater than 25 µM and the inhibition at 25 µM was determined as 20%.

`CCN(CC(=O)N[C@@H](CC(=O)O)C(=O)N[C@H](C(=O)O)C(C)C)C(=O)CCCCNC(=N)N` [5-Guanidinopentanoyl-N-ethylglycyl-L-aspartyl-L-valine]: the IC50 in experiment [1] came out at 0.04 µM. Further, in experiment [2], the half-inhibitory concentration (IC50) was found to be 0.63 µM and the inhibition at 25 µM turned out to be 91%.

Take `N=C(N)NCCCCCCCCC(=O)N[C@@H](CC(=O)O)C(=O)N[C@@H](CCCNC(=N)N)C(=O)OC1CCCCC1` [9-Guanidinononanoyl-L-aspartyl-L-arginine-cyclohexylester]: the IC50 in experiment [1] amounted to 0.26 µM. Besides, in experiment [2], the half-maximal inhibitory concentration (IC50) worked out at 0.82 µM and the inhibition at 25 µM turned out to be 91%.

In the case of `CC(C)[C@H](NC(=O)[C@H](CC(=O)O)NC(=O)CCCCCCCCCCCNC(=N)N)C(=O)O` [12-Guanidinododecanoyl-L-aspartyl-L-valine], in experiment [1], the IC50 worked out at 7 µM. Further, the inhibition at 25 µM in experiment [2] was determined as 36%.

`CC(C)[C@H](NC(=O)[C@H](CC(=O)O)NC(=O)CCCCCCn1ccnc1)C(=O)O` [7-(Imidazol-1-yl)heptanoyl-L-aspartyl-L-valine]: the IC50 in experiment [1] is 2 µM. Also, in experiment [2], the IC50 is greater than 25 µM and the inhibition at 25 µM came to 35%.

As to `CC(C)[C@H](NC(=O)[C@H](CC(=O)O)NC(=O)CN(C)C(=O)[C@@H](N)CCCNC(=N)N)C(=O)O` [L-arginylsarcosyl-L-aspartyl-L-valine] (H-R[Sar]DV-OH), in experiment [1], the IC50 was 14 µM. In addition, in experiment [2], the IC50 was determined as 14 µM and the inhibition at 100 µM stood at 92%.

Regarding `CC(C)[C@H](NC(=O)[C@H](CC(=O)O)NC(=O)CN(C)C(=O)CCCCCNC(=N)N)C(=O)O` [6-Guanidinohexanoyl-L-sarcosyl-L-aspartyl-L-valine], the values for the 50% inhibitory concentration (IC50) in experiment [1] and in experiment [2] were 0.32 µM and 0.63 µM, respectively. Besides, the inhibition at 25 µM in experiment [2] stood at 97%.

On to `CC(C)[C@H](NC(=O)[C@H](CC(=O)O)NC(=O)CNC(=O)[C@@H](N)CCCN)C(=O)O` [L-ornithylglycyl-L-aspartyl-L-valine] (H-[Orn]GDV-OH), for which, in experiment [1] (read-out: Inhibition of 125I-Fibrinogen Binding to Platelets: Inhibited <50% at 50 μg/ml), the inhibition at 50 µg/mL was less than 50%. Moreover, in experiment [2], the 50% inhibitory concentration (IC50) turned out to be 15 µM and the inhibition at 100 µM was found to be 80%.

The record behind these values is patent publication US5332726A, “Antithrombotic peptides and pseudopeptides” (Rhone-Poulenc Rorer Pharmaceuticals Inc., priority 1992, dated 1994).
